What was measured:
[1] = tested on: CL-11 (Colorectal Carcinoma); experiment: Bliss excess, mean over the matrix (fraction); higher = more synergy
Outline: (§1)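 Cell lines grown in DMEM/F12 or RPMI with 10% FBS were plated in 1536-well plates and held 24 hours at 37°C, 5% CO2 before 72 hours of exposure to two-drug dose matrices, with DMSO typically at 0.2%. CellTiter-Glo 2.0 luminescence gave viability, which was converted to inhibition. Vehicle wells were set to 0 and blank wells to 1. Combination Emax is the second-highest inhibition in the matrix, and Bliss excess is the observed combination effect minus the expected EA + EB − EA·EB, where EA and EB are the single-agent effects.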

[2] = tested on: DBTRG-05MG (Glioblastoma); experiment: as above
Outline: as §1

[3] = tested on: ES6 (Ewing's Sarcoma); experiment: as above
Outline: as §1

[4] = tested on: IA-LM (Non-Small Cell Lung Carcinoma); experiment: as above
Outline: as §1

[5] = tested on: LS-1034 (Colorectal Carcinoma); experiment: as above
Outline: as §1

[6] = tested on: MM1S (Plasma Cell Myeloma); experiment: as above
Outline: as §1

[7] = tested on: NCI-H226 (Mesothelioma); experiment: as above
Outline: as §1

[8] = tested on: NMC-G1 (Low Grade Glioma); experiment: as above
Outline: as §1

[9] = tested on: P32-ISH (Burkitt's Lymphoma); experiment: as above
Outline: as §1

[10] = tested on: RCC-JW (Kidney Carcinoma); experiment: as above
Outline: as §1

[11] = tested on: SAT (Head and Neck Carcinoma); experiment: as above
Outline: as §1

[12] = tested on: SK-CO-1 (Colorectal Carcinoma); experiment: as above
Outline: as §1

[13] = tested on: SNU-407 (Colorectal Carcinoma); experiment: as above
Outline: as §1

[14] = tested on: SNU-423 (Hepatocellular Carcinoma); experiment: as above
Outline: as §1

[15] = tested on: SiHa (Cervical Carcinoma); experiment: as above
Outline: as §1

[16] = tested on: UACC-257 (Melanoma); experiment: as above
Outline: as §1

[17] = tested on: ZR-75-30 (Breast Carcinoma); experiment: as above
Outline: as §1

[18] = tested on: CPC-N (Small Cell Lung Carcinoma); experiment: combination Emax (second highest fraction inhibited in the dose matrix, 72 h); higher = more inhibition; extreme values may be limits of the assay
Outline: as §1

[19] = tested on: SCC-4 (Oral Cavity Carcinoma); experiment: as above
Outline: as §1

[20] = tested on: SK-CO-1 (Colorectal Carcinoma); experiment: as above
Outline: as §1
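Wherever Bliss excess, mean over the matrix is given: after 72 h of two-drug dosing.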

SMILES	Bliss excess [1]	Bliss excess [2]	Bliss excess [3]	Bliss excess [4]	Bliss excess [5]	Bliss excess [6]	Bliss excess [7]	Bliss excess [8]	Bliss excess [9]	Bliss excess [10]	Bliss excess [11]	Bliss excess [12]	Bliss excess [13]	Bliss excess [14]	Bliss excess [15]	Bliss excess [16]	Bliss excess [17]	combination Emax [18]	combination Emax [19]	combination Emax [20]
COc1cc2c(cc1OCCCCCOc1cc3c(cc1OC)C(=O)N1C=C(C)C[C@H]1C=N3)N=C[C@@H]1CC(C)=CN1C2=O [SG3199] + O=C(c1cc(Cc2n[nH]c(=O)c3ccccc23)ccc1F)N1CCN(C(=O)C2CC2)CC1 [Olaparib] (first compound max 0.001 µM, 7x7, partner max 10 µM)	-0.016	-0.0357	-0.0231	-0.0401	-0.0462	0.0663	-0.0581	-0.0625	-0.0164	-0.0231	-0.0203	-0.0444	-0.0378	-0.0238	-0.0291	-0.0419	-0.001	0.243	0.0768	0.46
CCc1c2c(nc3ccc(O)cc13)-c1cc3c(c(=O)n1C2)COC(=O)[C@]3(O)CC [SN-38] + CN(C)CCCOc1ccc(-c2ccc3ncc4c(c3c2)n(C2CCOCC2)c(=O)n4C)cn1 [AZD0156] (first compound max 0.3 µM, 7x7, partner max 1 µM)	0.117	-0.019	0.0441	-0.0369	0.139	-0.0498	-0.0287	-0.0202	0.0657	0.05	0.0361	-0.0032	-0.0188	-0.0165	-0.0241	0.0023	-0.194	0.549	0.839	0.887
CC(=O)Nc1cccc(-n2c(=O)n(C3CC3)c(=O)c3c(Nc4ccc(I)cc4F)n(C)c(=O)c(C)c32)c1 [Trametinib] + Cc1nc(-c2cn3c(n2)-c2ccc(-c4cnn(C(C)(C)C(N)=O)c4)cc2OCC3)n(C(C)C)n1 [Taselisib] (first compound max 1 µM, 7x7, partner max 10 µM)	0.139	0.0957	-0.0292	0.0972	0.0234	0.119	0.003	0.0478	0.0479	0.0114	-0.0373	0.0523	0.0236	0.0727	0.0162	0.0443	0.0155	0.362	0.992	1
CC1(C)CCC(CN2CCN(c3ccc(C(=O)NS(=O)(=O)c4ccc(NCC5CCOCC5)c([N+](=O)[O-])c4)c(Oc4cnc5[nH]ccc5c4)c3)CC2)=C(c2ccc(Cl)cc2)C1 [Venetoclax] + C1CN(CCC1(C(=O)N[C@@H](CCO)C2=CC=C(C=C2)Cl)N)C3=NC=NC4=C3C=CN4 [Capivasertib] (first compound max 1 µM, 7x7, partner max 3 µM)	-0.0205	-0.0522	-0.0858	-0.057	-0.0214	-0.0028	-0.0673	-0.0683	-0.0094	-0.0312	-0.0422	-0.0247	-0.0204	-0.0386	-0.002	-0.0707	-0.0324	0.84	0.23	0.187
CC1(C)CCC(CN2CCN(c3ccc(C(=O)NS(=O)(=O)c4ccc(NCC5CCOCC5)c([N+](=O)[O-])c4)c(Oc4cnc5[nH]ccc5c4)c3)CC2)=C(c2ccc(Cl)cc2)C1 [Venetoclax] + C=CCn1c(=O)c2cnc(Nc3ccc(N4CCN(C)CC4)cc3)nc2n1-c1cccc(C(C)(C)O)n1 [AZD1775] (first compound max 1 µM, partner max 1 µM)	-0.0425	-0.0476	0.025	-0.0386	-0.043	-0.0281	-0.0296	0.0064	-0.0118	-0.0116	-0.0537	-0.04	-0.0755	-0.0472	-0.0527	-0.0142	-0.0286	0.964	0.637	0.569
CC1(C)CCC(CN2CCN(c3ccc(C(=O)NS(=O)(=O)c4ccc(NCC5CCOCC5)c([N+](=O)[O-])c4)c(Oc4cnc5[nH]ccc5c4)c3)CC2)=C(c2ccc(Cl)cc2)C1 [Venetoclax] + CCN(CCO)CCCOc1ccc2c(Nc3cc(CC(=O)Nc4cccc(F)c4)[nH]n3)ncnc2c1 [AZD2811] (first compound max 1 µM, 7x7, partner max 1 µM)	-0.0137	-0.0171	-0.0166	-0.053	-0.0328	0.0157	-0.0604	-0.0253	-0.0282	-0.0068	-0.0043	0.0082	-0.036	-0.0381	-0.0107	-0.0105	-0.0575	0.942	0.429	0.583
CC1(C)CCC(CN2CCN(c3ccc(C(=O)NS(=O)(=O)c4ccc(NCC5CCOCC5)c([N+](=O)[O-])c4)c(Oc4cnc5[nH]ccc5c4)c3)CC2)=C(c2ccc(Cl)cc2)C1 [Venetoclax] + CN(C)CCCOc1ccc(-c2ccc3ncc4c(c3c2)n(C2CCOCC2)c(=O)n4C)cn1 [AZD0156] (first compound max 1 µM, 7x7, partner max 1 µM)	-0.0419	-0.008	-0.0201	-0.0238	-0.052	0.0344	-0.0536	-0.0373	-0.0083	0.0087	-0.015	-0.0119	-0.0437	-0.0429	-0.0419	-0.004	-0.0422	0.78	0.358	0.271
CC1(C)CCC(CN2CCN(c3ccc(C(=O)NS(=O)(=O)c4ccc(NCC5CCOCC5)c([N+](=O)[O-])c4)c(Oc4cnc5[nH]ccc5c4)c3)CC2)=C(c2ccc(Cl)cc2)C1 [Venetoclax] + COc1cc(Nc2ncc3c(n2)-c2ccc(Cl)cc2C(c2c(F)cccc2OC)=NC3)ccc1C(=O)O [Alisertib] (first compound max 1 µM, 7x7, partner max 10 µM)	-0.0062	-0.0248	-0.0324	-0.0469	-0.0252	0.078	-0.089	-0.0125	-0.0078	-0.0415	-0.0525	0.0901	-0.0296	0.0176	-0.0669	-0.0234	-0.0603	0.835	0.571	0.629
CC1(C)CCC(CN2CCN(c3ccc(C(=O)NS(=O)(=O)c4ccc(NCC5CCOCC5)c([N+](=O)[O-])c4)c(Oc4cnc5[nH]ccc5c4)c3)CC2)=C(c2ccc(Cl)cc2)C1 [Venetoclax] + C[C@@H]1COCCN1C2=NC(=NC(=C2)C3(CC3)[S@](=N)(=O)C)C4=C5C=CNC5=NC=C4 [AZD6738] (first compound max 1 µM, 7x7, partner max 10 µM)	-0.0395	0.0023	-0.0314	-0.01	-0.0255	0.0444	-0.0383	-0.0032	0.0365	-0.0484	-0.0144	-0.103	-0.0138	-0.0801	-0.0036	-0.0092	-0.0359	0.936	0.585	0.55
CC1(C)CCC(CN2CCN(c3ccc(C(=O)NS(=O)(=O)c4ccc(NCC5CCOCC5)c([N+](=O)[O-])c4)c(Oc4cnc5[nH]ccc5c4)c3)CC2)=C(c2ccc(Cl)cc2)C1 [Venetoclax] + C[C@@H](Nc1cc(F)cc(F)c1)c1cc(C(=O)N(C)C)cc2c(=O)cc(N3CCOCC3)oc12 [AZD8186] (first compound max 1 µM, 7x7, partner max 3 µM)	-0.0397	-0.0251	-0.0661	-0.0416	-0.0318	0.0377	-0.0577	-0.0256	0.0385	0.0135	0.0036	-0.0782	-0.0471	0.0364	0.0009	-0.0538	-0.0201	0.835	0.614	0.187
CC1(C)CCC(CN2CCN(c3ccc(C(=O)NS(=O)(=O)c4ccc(NCC5CCOCC5)c([N+](=O)[O-])c4)c(Oc4cnc5[nH]ccc5c4)c3)CC2)=C(c2ccc(Cl)cc2)C1 [Venetoclax] + Cc1cc2ncnn2cc1Nc1ncc2c(n1)n(C1CCOCC1)c(=O)n2C [AZD7648] (first compound max 1 µM, 7x7, partner max 10 µM)	-0.0255	-0.0224	-0.0359	0.0086	-0.0323	0.0556	-0.0552	-0.0508	-0.0154	-0.0431	-0.0171	-0.018	0.0174	-0.111	-0.0549	-0.0235	-0.0381	0.84	0.235	0.229
CC1(C)CCC(CN2CCN(c3ccc(C(=O)NS(=O)(=O)c4ccc(NCC5CCOCC5)c([N+](=O)[O-])c4)c(Oc4cnc5[nH]ccc5c4)c3)CC2)=C(c2ccc(Cl)cc2)C1 [Venetoclax] + Cn1cnc2c(F)c(Nc3ccc(Br)cc3Cl)c(C(=O)NOCCO)cc21 [Selumetinib] (first compound max 1 µM, 7x7, partner max 3 µM)	-0.0494	0.0064	-0.0321	-0.0248	-0.0644	0.0456	-0.0799	-0.0531	0.0152	-0.0396	0.0334	0.001	-0.0275	-0.11	-0.0516	-0.0487	-0.034	0.734	0.164	0.727
